This is an account of results in patent publication US20240294548A1, “TRICYCLIC SULTAMS AND SULFAMIDES AS ANTITUMOR AGENTS” (PELOTON THERAPEUTICS INC., priority 2021, published 2024).

Experiment [1] relates to HCT116 human colorectal carcinoma cells. The experiment is described as follows: CellTiter-Glo assay (cell viability). To be noted: HCT-116, 72 h, read-out: CTG IC50. In kind it is cell-based. The method, then:
HCT116 human colorectal carcinoma cells were used in these experiments. HCT116 cells were obtained from ATCC. CellTiter-Glo® Luminescent Cell Viability Assay Reagent was obtained from Promega.
About 3,000 cells were seeded into 96-well plate with 100 μL of media (DMEM supplemented with 10% FBS, 100 units penicillin, and […] streptomycin per mL) the day before the experiment. For compound treatment, the master plate was prepared as follows: 100× compound stocks were prepared in a 96-well plate by 1 to 3 serial dilutions of 0.5 mM DMSO stocks. Each master plate contained serial dilution of 8 compounds, including the control compound E7820. […] of 100× compound stock was added to each well of the assay plate to give final concentrations of […]. Each concentration was tested in triplicate. After 3 days, cell viability was determined using CellTiter-Glo Luminescent Cell Viability Assay Reagent following the manufacturer's recommended protocol. Briefly, […] of CellTiter-Glo reagent was added to each well of the assay plate and the contents were mixed for 3 minutes at 600 rpm on a shaker (Thermomixer R). The plate was immediately placed in a plate reader (Synergy 2) and the luminescence signal (0.5 second per well integration time) was determined. IC50 values were calculated using Dotmatics software.
(In general: In ATP-based viability assays light output follows the ATP content of the culture.)

Experiment [2] deals with T1, DCAF15 (DDA1-DDB1ΔB-DCAF15Δpro) (Homo sapiens, UniProt Q66K64, DEL276-383).
T1 construct: made in house; host or cells: Sf9 (Bac-to-Bac baculovirus)
In words: DCAF15 displacement assay (displacement FRET, probe PT7795). In kind it is binding.

Experiment [3] concerns the target T2, DCAF15 RBM39 ternary complex (Homo sapiens, UniProt Q14498+Q66K64, DEL276-383).
T2 construct: Amino acids 150 to 331 of RBM39 were cloned into pGEX4T3; GST (from the pGEX4T3 vector, own knowledge) followed by a TEV cleavage site (N); made in house; host or cells: Sf9 baculovirus (DDB1ΔB/DCAF15); E. coli (RBM39 R1R2)
The experiment is described as follows: DCAF15 RBM39 complex formation assay (FRET). In kind it is biochemical. The procedure, abridged: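 TR-FRET between Eu-anti-His and APC-anti-FLAG, using 20 nM His-DCAF15/DDB1DB (Sf9) with 50 nM RBM39 RRM1–RRM2 (E. coli) in HEPES pH 7.5 buffer. Compounds run as a 14-point 3-fold series from 1 μM, incubated overnight at 4 °C.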

Setting [4] is: HCT116 cells, 3 days, CellTiter-Glo luminescence.
Setting [5] is: displacement of PT7795 (300 nM), compound 0.01 to 100 μM, 18 hours incubation, read-out: DCAF15 displacement IC50.
The mark [6] stands for this setting: FRET ratio, 20 nM DDB1DB/DCAF15, 50 nM RBM39 R1R2, overnight at 4° C., read-out: DCAF15 RBM39 ternary complex EC50.

SMILES strings stand for the structures. Like-named read-outs stand apart in the source and are kept apart here.

T2 sequence (Q66K64 with tags, fused parts or gaps DEL276-383): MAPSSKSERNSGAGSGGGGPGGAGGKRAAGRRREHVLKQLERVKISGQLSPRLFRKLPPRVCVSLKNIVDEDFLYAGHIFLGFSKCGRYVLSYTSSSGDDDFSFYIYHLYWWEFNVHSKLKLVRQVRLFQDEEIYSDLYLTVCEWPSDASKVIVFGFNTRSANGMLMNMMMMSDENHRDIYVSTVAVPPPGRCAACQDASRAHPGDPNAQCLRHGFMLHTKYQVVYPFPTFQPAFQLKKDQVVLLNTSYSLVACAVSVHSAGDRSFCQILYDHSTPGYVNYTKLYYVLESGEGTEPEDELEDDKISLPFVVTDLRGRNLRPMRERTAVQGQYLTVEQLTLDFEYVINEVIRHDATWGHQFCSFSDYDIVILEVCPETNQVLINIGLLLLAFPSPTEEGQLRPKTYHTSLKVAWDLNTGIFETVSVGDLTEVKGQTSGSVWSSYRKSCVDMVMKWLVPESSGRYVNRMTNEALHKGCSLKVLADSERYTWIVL
T2 sequence (Q14498 150-331, stated change not applied): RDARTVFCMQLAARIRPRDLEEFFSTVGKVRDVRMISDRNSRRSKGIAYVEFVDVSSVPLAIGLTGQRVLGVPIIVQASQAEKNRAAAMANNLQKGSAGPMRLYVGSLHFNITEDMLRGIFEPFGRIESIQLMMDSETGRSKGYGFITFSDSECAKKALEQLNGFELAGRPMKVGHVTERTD

In general, IC50 refers to the concentration at which inhibition is half-maximal. The EC50 is the concentration that produces a half-maximal response. Take `O=S1(=O)Nc2c(cc(Cl)c3c(Cl)c[nH]c23)CN1CCCC(F)(F)C(F)(F)F` [Compound 25, 6,7-dichloro-3-(4,4,5,5,5-pentafluoropentyl)-1,3,4,9-tetrahydro-[1,2,6] thiadiazino[4,3-g]indole 2,2-dioxide]: the figures for the concentration for half-maximal inhibition (IC50) in experiment [1] (setting [4]) and in experiment [2] (setting [5]) were 992 nM and 52200 nM, respectively. Besides, the EC50 in experiment [3] (setting [6]) worked out at 3.4 nM.

On to `O=S1(=O)Nc2c(cc(Cl)c3c(Cl)c[nH]c23)CN1Cc1cnccc1Cl` [Compound 54, 6,7-dichloro-3-((4-chloropyridin-3-yl)methyl)-1,3,4,9-tetrahydro-[1,2,6] thiadiazino[4,3-g]indole 2,2-dioxide], for which the IC50 is 128 nM in experiment [1] (setting [4]) and 371 nM in experiment [2] (setting [5]). The concentration giving a half-maximal response (EC50) in experiment [3] (setting [6]) was 1.2 nM.

As for `O=S1(=O)Nc2c(cc(Cl)c3c(Cl)c[nH]c23)CN1CC1CCOCC1` [Compound 44, 6,7-dichloro-3-((tetrahydro-2H-pyran-4-yl)methyl)-1,3,4,9-tetrahydro-[1,2,6] thiadiazino[4,3-g]indole 2,2-dioxide], the 50% inhibitory concentration (IC50) in experiment [1] (setting [4]) is 62.2 nM; in experiment [2] (setting [5]) it was 276 nM. The EC50 in experiment [3] (setting [6]) was determined as 1.8 nM.

With `Cn1ncnc1CN1Cc2cc(Cl)c3c(Cl)c[nH]c3c2NS1(=O)=O` [Compound 38, 6,7-dichloro-3-((1-methyl-1H-1,2,4-triazol-5-yl)methyl)-1,3,4,9-tetrahydro-[1,2,6] thiadiazino[4,3-g]indole 2,2-dioxide], the IC50 in experiment [1] (setting [4]) amounted to 262 nM; in experiment [2] (setting [5]) it was 458 nM. For the same compound, the 50% effective concentration (EC50) in experiment [3] (setting [6]) came out at 1.3 nM.

For `Nc1ccccc1CN1Cc2cc(Cl)c3c(Cl)c[nH]c3c2NS1(=O)=O` [Compound 74, 3-(2-aminobenzyl)-6,7-dichloro-1,3,4,9-tetrahydro-[1,2,6] thiadiazino[4,3-g]indole 2,2-dioxide], the values for the IC50 in experiment [1] (setting [4]) and in experiment [2] (setting [5]) were 171 nM and 301 nM, respectively. Also, in experiment [3] (setting [6]), the concentration for a half-maximal effect (EC50) came out at 1.3 nM.

Consider `O=c1ccc(CN2Cc3cc(Cl)c4c(Cl)c[nH]c4c3NS2(=O)=O)c[nH]1` [Compound 17, 5-((6,7-dichloro-2,2-dioxido-4,9-dihydro-[1,2,6]thiadiazino[4,3-g]indol-3(1H)-yl)methyl)pyridin-2(1H)-one], for which the IC50 is 916 nM in experiment [1] (setting [4]) and 797 nM in experiment [2] (setting [5]). Moreover, the half-maximal effective concentration (EC50) in experiment [3] (setting [6]) came out at 1.8 nM.

For `O=S1(=O)Nc2c(cc(Cl)c3c(Cl)c[nH]c23)CN1Cc1cccnn1` [Compound 42, 6,7-dichloro-3-(pyridazin-3-ylmethyl)-1,3,4,9-tetrahydro-[1,2,6]thiadiazino[4,3-g]indole 2,2-dioxide], the 50% inhibitory concentration (IC50) in experiment [1] (setting [4]) was determined as 298 nM; in experiment [2] (setting [5]) it was 588 nM. For the same compound, the EC50 in experiment [3] (setting [6]) came out at 0.7 nM.

As for `O=S1(=O)Nc2c(cc(Cl)c3c(Cl)c[nH]c23)CN1Cc1cccc(Cl)c1` [Compound 11, 6,7-dichloro-3-(3-chlorobenzyl)-1,3,4,9-tetrahydro-[1,2,6] thiadiazino[4,3-g]indole 2,2-dioxide], the IC50 in experiment [1] (setting [4]) was 1400 nM; in experiment [2] (setting [5]) it was 9720 nM. Besides, the EC50 in experiment [3] (setting [6]) is 2.8 nM.

In the case of `CC(c1ccccc1)N1Cc2cc(Cl)c3c(Cl)c[nH]c3c2NS1(=O)=O` (stereo not drawn) [Compound 23, 6,7-dichloro-3-(1-phenylethyl)-1,3,4,9-tetrahydro-[1,2,6] thiadiazino[4,3-g] indole 2,2-dioxide], the figures for the IC50 in experiment [1] (setting [4]) and in experiment [2] (setting [5]) were 591 nM and 9590 nM, respectively. Also, the EC50 in experiment [3] (setting [6]) was determined as 2.8 nM.

As to `O=S1(=O)Nc2c(cc(Cl)c3c(Cl)c[nH]c23)CN1Cc1cccnc1` [Compound 26, 6,7-dichloro-3-(pyridin-3-ylmethyl)-1,3,4,9-tetrahydro-[1,2,6] thiadiazino[4,3-g] indole 2,2-dioxide], the IC50 stood at 130 nM in experiment [1] (setting [4]) and 507 nM in experiment [2] (setting [5]). The EC50 in experiment [3] (setting [6]) came to 1.2 nM.

With `O=S1(=O)Nc2c(cc(Cl)c3c(Cl)c[nH]c23)CN1CC1COC1` [Compound 34, 6,7-dichloro-3-(oxetan-3-ylmethyl)-1,3,4,9-tetrahydro-[1,2,6]thiadiazino[4,3-g]indole 2,2-dioxide], the half-maximal inhibitory concentration (IC50) stood at 126 nM in experiment [1] and 689 nM in experiment [2] (setting [5]). In experiment [3] (setting [6]), the 50% effective concentration (EC50) was found to be 1.8 nM.

For `O=S1(=O)Nc2c(cc(Cl)c3c(Cl)c[nH]c23)CN1Cc1ccccc1F` [Compound 70, 6,7-dichloro-3-(2-fluorobenzyl)-1,3,4,9-tetrahydro-[1,2,6] thiadiazino[4,3-g]indole 2,2-dioxide], the results for the IC50 in experiment [1] (setting [4]) and in experiment [2] (setting [5]) were 833 nM and 1950 nM, respectively. Further, in experiment [3] (setting [6]), the EC50 worked out at 3.3 nM.

For `O=S1(=O)Nc2c(cc(Cl)c3c(Cl)c[nH]c23)CN1CCCC(F)(F)F` [Compound 32, 6,7-dichloro-3-(4,4,4-trifluorobutyl)-1,3,4,9-tetrahydro-[1,2,6] thiadiazino[4,3-g]indole 2,2-dioxide], the concentration for half-maximal inhibition (IC50) in experiment [1] (setting [4]) was 269 nM; in experiment [2] (setting [5]), 4120 nM. Besides, in experiment [3] (setting [6]), the 50% effective concentration (EC50) worked out at 1.9 nM.

Regarding `O=S1(=O)Nc2c(cc(Cl)c3c(Cl)c[nH]c23)CN1CCN1CCOCC1` [Compound 71, 6,7-dichloro-3-(2-morpholinoethyl)-1,3,4,9-tetrahydro-[1,2,6] thiadiazino[4,3-g]indole 2,2-dioxide], the values for the IC50 in experiment [1] and in experiment [2] were 353 nM and 952 nM, respectively. In experiment [3], the response was half-maximal at 2.1 nM (EC50).

Take `CNCCN1Cc2cc(Cl)c3c(Cl)c[nH]c3c2NS1(=O)=O` [Compound 28, 6,7-dichloro-3-(2-(methylamino)ethyl)-1,3,4,9-tetrahydro-[1,2,6] thiadiazino[4,3-g]indole 2,2-dioxide]: the values for the IC50 in experiment [1] (setting [4]) and in experiment [2] (setting [5]) were 501 nM and 28000 nM, respectively. In addition, the EC50 in experiment [3] (setting [6]) was determined as 1.4 nM.

As to `Cn1cc(CN2Cc3cc(Cl)c4c(Cl)c[nH]c4c3NS2(=O)=O)ccc1=O` [Compound 65, 5-((6,7-dichloro-2,2-dioxido-4,9-dihydro-[1,2,6]thiadiazino[4,3-g]indol-3(1H)-yl)methyl)-1-methylpyridin-2(1H)-one], the half-inhibitory concentration (IC50) in experiment [1] (setting [4]) stood at 493 nM; in experiment [2] (setting [5]) it was 934 nM. For the same compound, the EC50 in experiment [3] (setting [6]) was 1.9 nM.

For the compound `CN1Cc2cc(Cl)c3c(Cl)c[nH]c3c2NS1(=O)=O` [Compound 15, 6,7-dichloro-3-methyl-1,3,4,9-tetrahydro-[1,2,6]thiadiazino [4,3-g]indole 2,2-dioxide], the IC50 in experiment [1] (setting [4]) amounted to 726 nM; in experiment [2] (setting [5]), 14400 nM. For the same compound, in experiment [3] (setting [6]), the 50% effective concentration (EC50) amounted to 7.7 nM.

As to `O=S1(=O)Nc2c(cc(Cl)c3c(Cl)c[nH]c23)CN1CC1CCNCC1` [Compound 39, 6,7-dichloro-3-(piperidin-4-ylmethyl)-1,3,4,9-tetrahydro-[1,2,6]thiadiazino[4,3-g]indole 2,2-dioxide], the 50% inhibitory concentration (IC50) in experiment [1] (setting [4]) was 4990 nM; in experiment [2] (setting [5]) it was 285 nM. For the same compound, the EC50 in experiment [3] (setting [6]) is 1.2 nM.

In the case of `COCCN1Cc2cc(C)c3c(Cl)c[nH]c3c2NS1(=O)=O` [Compound 87, 7-chloro-3-(2-methoxyethyl)-6-methyl-1,3,4,9-tetrahydro-[1,2,6] thiadiazino[4,3-g]indole 2,2-dioxide], the concentration for half-maximal inhibition (IC50) worked out at 258 nM in experiment [1] (setting [4]) and 6220 nM in experiment [2] (setting [5]). The EC50 in experiment [3] (setting [6]) amounted to 1.8 nM.

As for `O=S1(=O)Nc2c(cc(Cl)c3c(Cl)c[nH]c23)CN1Cc1ccc(Cl)nc1` [Compound 12, 6,7-dichloro-3-((6-chloropyridin-3-yl)methyl)-1,3,4,9-tetrahydro-[1,2,6]thiadiazino[4,3-g]indole 2,2-dioxide], the concentration for half-maximal inhibition (IC50) in experiment [1] (setting [4]) was 125 nM; in experiment [2] (setting [5]), 1110 nM. For the same compound, the EC50 in experiment [3] (setting [6]) worked out at 0.7 nM.

Consider `CN1CCC(CN2Cc3cc(Cl)c4c(Cl)c[nH]c4c3NS2(=O)=O)CC1` [Compound 83, 6,7-dichloro-3-((1-methylpiperidin-4-yl)methyl)-1,3,4,9-tetrahydro-[1,2,6]thiadiazino[4,3-g]indole 2,2-dioxide], for which the figures for the IC50 in experiment [1] (setting [4]) and in experiment [2] (setting [5]) were 66.9 nM and 781 nM, respectively. In addition, in experiment [3] (setting [6]), the EC50 is 2.3 nM.

In the case of `COCCN1Cc2cc(Cl)c3c(C#N)c[nH]c3c2NS1(=O)=O` [Compound 8, 6-chloro-3-(2-methoxyethyl)-1,3,4,9-tetrahydro-[1,2,6] thiadiazino[4,3-g]indole7-carbonitrile 2,2-dioxide], the 50% inhibitory concentration (IC50) was found to be 3160 nM in experiment [1] (setting [4]) and 3340 nM in experiment [2] (setting [5]). The EC50 in experiment [3] (setting [6]) was determined as 6.2 nM.
